Reference: ChEMBL document CHEMBL4406866, “Design, synthesis and evaluation of 5-(4-hydroxyphenyl)-3H-1,2-dithiole-3-thione-Based fibrates as potential hypolipidemic and hepatoprotective agents” (Bioorg Med Chem Lett, 2019)
Calls of active or inactive are those of the source. The calls are words filed in the database; no cut-off is given here.

How the values were obtained:
Rattus norvegicus [1] = assay: Hepatoprotective activity in Met-induced hyperlipidemia rat model assessed as decrease in inflammatory cell infiltration in liver at 9 mg/kg, po administered with compound for last 30 days during feeding of 0.2% Met solution for 60 days by microscopic analysis; format: functional, organism-based
Rattus norvegicus [2] = assay: Antiinflammatory activity in Met-induced hyperlipidemia rat model assessed as decrease in serum IL-6 level at 9 mg/kg, po administered with compound for last 30 days during feeding of 0.2% Met solution for 60 days by ELISA; format: functional, organism-based
Rattus norvegicus [3] = assay: Antioxidant activity in Met-induced hyperlipidemia rat model assessed as increase in serum T-AOC level at 9 mg/kg, po administered with compound for last 30 days during feeding of 0.2% Met solution for 60 days; format: functional, organism-based
[4] = Drug metabolism in po dosed mouse liver assessed as H2S release by measuring hydrogen sulfide level administered for 7 days and measured following 12 hrs fasting on day 7 (reference value: 93.8 +/- 6.1 nmol/g); format: ADME, organism-based; conditions: in vivo
[5] = Drug metabolism in Met-induced hyperlipidemia rat model assessed as H2S release by measuring increase in serum hydrogen sulfide level at 9 mg/kg, po administered with compound for last 30 days during feeding of 0.2% Met solution for 60 days; format: ADME, organism-based; conditions: in vivo
Rattus norvegicus [6] = assay: Upregulation of PPAR-alpha protein expression in liver of Met-induced hyperlipidemia rat model at 9 mg/kg, po administered with compound for last 30 days during feeding of 0.2% Met solution for 60 days; format: functional, organism-based
[7] = Drug metabolism in po dosed mouse plasma assessed as H2S release by measuring hydrogen sulfide level administered for 7 days and measured following 12 hrs fasting on day 7 (reference value: 52.9 +/- 5.4 umol/L); format: ADME, organism-based; conditions: in vivo
Rattus norvegicus [8] = assay: Antioxidant activity in Met-induced hyperlipidemia rat model assessed as decrease in serum MDA level at 9 mg/kg, po administered with compound for last 30 days during feeding of 0.2% Met solution for 60 days; format: functional, organism-based
Rattus norvegicus [9] = assay: Hypolipidemic activity in Met-induced hyperlipidemia rat model assessed as decrease in serum Hcy level at 9 mg/kg, po administered with compound for last 30 days during feeding of 0.2% Met solution for 60 days; format: functional, organism-based
Rattus norvegicus [10] = assay: Hepatoprotective activity in Met-induced hyperlipidemia rat model assessed as decrease in serum AST level at 9 mg/kg, po administered with compound for last 30 days during feeding of 0.2% Met solution for 60 days; format: functional, organism-based
Mus musculus [11] = species on record: Mus musculus; conditions: at 13 mg/kg
Description: Hypolipidemic activity in Triton WR1339-induced hyperlipidemia mouse model assessed as decrease in serum TG level at 13 mg/kg, ig administered for one week and administered with Triton WR 1339 on day 6 and measured after 24 hrs

Rattus norvegicus [12] = assay: Hypolipidemic activity in Met-induced hyperlipidemia rat model assessed as decrease in atherosclerosis index at 9 mg/kg, po administered with compound for last 30 days during feeding of 0.2% Met solution for 60 days; format: functional, organism-based
Rattus norvegicus [13] = assay: Hepatoprotective activity in Met-induced hyperlipidemia rat model assessed as decrease in serum ALT level at 9 mg/kg, po administered with compound for last 30 days during feeding of 0.2% Met solution for 60 days; format: functional, organism-based
Rattus norvegicus [14] = assay: Vasorelaxation activity in Met-induced hyperlipidemia rat model assessed as effect on serum ET-1 level at 9 mg/kg, po administered with compound for last 30 days during feeding of 0.2% Met solution for 60 days; format: functional, organism-based
Rattus norvegicus [15] = assay: Hepatoprotective activity in Met-induced hyperlipidemia rat model assessed as improvement in hepatic tissue hemorrhagic symptoms at 9 mg/kg, po administered with compound for last 30 days during feeding of 0.2% Met solution for 60 days by microscopic analysis; format: functional, organism-based
Rattus norvegicus [16] = assay: Hypolipidemic activity in Met-induced hyperlipidemia rat model assessed as decrease in serum TC level at 9 mg/kg, po administered with compound for last 30 days during feeding of 0.2% Met solution for 60 days; format: functional, organism-based
Rattus norvegicus [17] = assay: Antioxidant activity in Met-induced hyperlipidemia rat model assessed as increase in serum SOD level at 9 mg/kg, po administered with compound for last 30 days during feeding of 0.2% Met solution for 60 days; format: functional, organism-based
Rattus norvegicus [18] = assay: Antiinflammatory activity in Met-induced hyperlipidemia rat model assessed as decrease in serum TNF-alpha level at 9 mg/kg, po administered with compound for last 30 days during feeding of 0.2% Met solution for 60 days by ELISA; format: functional, organism-based
Mus musculus [19] = species on record: Mus musculus; conditions: at 13 mg/kg; remark: listed apart in the source
Description: Hypolipidemic activity in Triton WR1339-induced hyperlipidemia mouse model assessed as decrease in serum TC level at 13 mg/kg, ig administered for one week and administered with Triton WR 1339 on day 6 and measured after 24 hrs

Rattus norvegicus [20] = assay: Hepatoprotective activity in Met-induced hyperlipidemia rat model assessed as decrease in red lipid droplets in hepatocytes at 9 mg/kg, po administered with compound for last 30 days during feeding of 0.2% Met solution for 60 days by oil red O-staining based microscopic analysis; format: functional, organism-based
Mus musculus [21] = species on record: Mus musculus; conditions: at 13 mg/kg; remark: listed apart in the source
Description: Hypolipidemic activity in Triton WR1339-induced hyperlipidemia mouse model assessed as decrease in serum MDA level at 13 mg/kg, ig administered for one week and administered with Triton WR 1339 on day 6 and measured after 24 hrs

Rattus norvegicus [22] = assay: Hypolipidemic activity in Met-induced hyperlipidemia rat model assessed as decrease in serum TG level at 9 mg/kg, po administered with compound for last 30 days during feeding of 0.2% Met solution for 60 days; format: functional, organism-based
Rattus norvegicus [23] = assay: Hypolipidemic activity in Met-induced hyperlipidemia rat model assessed as increase in serum hydrogen sulfide level at 9 mg/kg, po administered with compound for last 30 days during feeding of 0.2% Met solution for 60 days; format: functional, organism-based

| Drug metabolism [4] | Drug metabolism [7] | SMILES | inhibition (Mus musculus [11]) | inhibition (Mus musculus [19]) | inhibition (Mus musculus [21]) | other results |
| --- | --- | --- | --- | --- | --- | --- |
| 165.6 nmol/g | 113.4 µmol/L | COC(=O)C(C)(C)Oc1ccc(-c2cc(=S)ss2)cc1 | Active | Active | Active | Activity (Rattus norvegicus [1]): Active; inhibition (Rattus norvegicus [2]): Active; Activity (Rattus norvegicus [3]): Active; Drug metabolism [5]: Metabolite_Detected; Activity (Rattus norvegicus [6]): Active; inhibition (Rattus norvegicus [8]): Active; inhibition (Rattus norvegicus [9]): Active; Activity (Rattus norvegicus [10]): Active; inhibition (Rattus norvegicus [12]): Active; Activity (Rattus norvegicus [13]): Active; Activity (Rattus norvegicus [14]): inactive; Activity (Rattus norvegicus [15]): Active; inhibition (Rattus norvegicus [16]): Active; Activity (Rattus norvegicus [17]): Active; inhibition (Rattus norvegicus [18]): Active; Activity (Rattus norvegicus [20]): Active; inhibition (Rattus norvegicus [22]): Active |
| 155.5 nmol/g | 86.5 µmol/L | COC(=O)CCCCOc1ccc(-c2cc(=S)ss2)cc1 | Active | Active | – | – |
| 181.3 nmol/g | 184.6 µmol/L | COc1ccc(-c2cc(=S)ss2)cc1 [ANETHOLTRITHION] | inactive | inactive | Active | – |
| 130.5 nmol/g | 95.5 µmol/L | COC(=O)CCCOc1ccc(-c2cc(=S)ss2)cc1 | Active | Active | Active | – |

More lines, now with the values behind:

| SMILES | Drug metabolism [4] | Drug metabolism [7] | inhibition (Mus musculus [11]) | inhibition (Mus musculus [19]) | inhibition (Mus musculus [21]) | other results |
| --- | --- | --- | --- | --- | --- | --- |
| COC(=O)C(C)Oc1ccc(-c2cc(=S)ss2)cc1 (stereo unspecified) | 164.8 nmol/g | 119.3 µmol/L | Active | – | – | – |
| COC(=O)CCCCCOc1ccc(-c2cc(=S)ss2)cc1 | 132.1 nmol/g | 93.7 µmol/L | Active | – | – | – |
| CC(C)OC(=O)C(C)(C)Oc1ccc(C(=O)c2ccc(Cl)cc2)cc1 | – | – | – | – | – | Activity (Rattus norvegicus [6]): Active; Activity (Rattus norvegicus [10]): Active; Activity (Rattus norvegicus [13]): inactive; Activity (Rattus norvegicus [23]): Active; Activity (Rattus norvegicus [20]): Active |
| CCC(Oc1ccc(-c2cc(=S)ss2)cc1)C(=O)OC (stereo unspecified) | 159.5 nmol/g | 128.8 µmol/L | Active | – | Active | – |
